We go through 17 compounds from ChEMBL document CHEMBL2346656, “Anti-hepatitis B virus lignans from the root of Streblus asper” (Bioorg Med Chem Lett, 2013).

Series [1] concerns Hepatitis B virus. The experiment in a line: Antiviral activity against Hepatitis B virus infected in human HepG2.2.15 cells assessed as inhibition of HBV DNA replication after 72 hrs by PCR analysis. It is filed as functional, organism-based. As to conditions: HepG2 2.2.15, 72 h.
The test system of series [2] is Hepatitis B virus. The experiment in a line: Antiviral activity against Hepatitis B virus infected in human HepG2.2.15 cells assessed as inhibition of HBeAg secretion after 12 days by ELISA. It is filed as functional, organism-based. As to conditions: HepG2 2.2.15, 288 h.
The nature of series [3]: Selectivity index, ratio of CC50 for human HepG2(2.2.15) cells to IC50 for Hepatitis B virus infected in human HepG2.2.15 cells by HBsAg secretion inhibition assay. It is filed as functional.
Series [4] is described as follows: Cytotoxicity against human HepG2(2.2.15) cells after 12 days by MTT assay. Type of series: cell-based.
The test system of series [5] is Hepatitis B virus. The experiment in a line: Antiviral activity against Hepatitis B virus infected in human HepG2.2.15 cells assessed as inhibition of HBsAg secretion after 12 days by ELISA. To be noted: HepG2 2.2.15, 288 h. Type of series: functional, organism-based.
Series [6] is described as follows: Selectivity index, ratio of CC50 for human HepG2(2.2.15) cells to IC50 for Hepatitis B virus infected in human HepG2.2.15 cells assessed as HBeAg secretion inhibition assay. Type of series: functional.
Series [7] in a line: Selectivity index, ratio of CC50 for human HepG2(2.2.15) cells to IC50 for Hepatitis B virus infected human HepG2.2.15 cells by DNA replication assay. Type of series: functional.

Take `C=CCc1ccc(Oc2ccc(C=O)cc2O)cc1` [ISOMAGNALDEHYDE]: the IC50 in series [1] was > 1000 µM; in series [2], 86.7 µM; in series [5] it was 162 µM. Besides, the “Ratio CC50/IC50” value was determined as 1.14 in series [3] and 2.14 in series [6]. In series [4], the CC50 at 288 h is 186 µM.

Turning to `C=CCc1ccc2c(c1)-c1cc([C@@H](O)[C@H](C)O)ccc1Oc1ccc(CC=C)cc1-c1cc([C@@H](O)[C@H](C)O)ccc1O2` [(7'R,8'S,7'R,8'S)-ERYTHRO-STREBLUSLIGNANOL G], the IC50 in series [1] came out at 9.02 µM; in series [2], 3.24 µM; in series [5], 1.58 µM. Besides, the “Ratio CC50/IC50” value in series [3] is given as 74.9; in series [7] it was 13.12; in series [6] it was 36.52. The compound further yielded a CC50 at 288 h in series [4] of 118 µM.

Turning to `C=CCc1ccc(O)c(-c2cc(C[C@@H](O)CO)ccc2O)c1` [MAGNOLIGNAN A], the IC50 in series [1], in series [2] and in series [5] was > 1000 µM in each case. The compound also had a CC50 at 288 h in series [4] of 176 µM.

For `C=CCc1ccc(O)c(-c2cc(O)ccc2O)c1` [RANDAIOL], the IC50 in series [1] was > 1000 µM; in series [2], 30.2 µM; in series [5] it was 162 µM. Moreover, the “Ratio CC50/IC50” value in series [3] was 1.23; in series [6], 6.63. Besides, half-maximal cytotoxicity in series [4] (CC50 at 288 h) was put at 201 µM.

In the case of `COc1cc(C2c3cc(O)c(OC)cc3C[C@@H](CO)[C@@H]2CO[C@@H]2OC[C@@H](O)[C@H](O)[C@H]2O)ccc1O` (stereo partly specified), the figures for the IC50 in series [1], in series [2] and in series [5] were 17.7 µM, 26.7 µM and 6.98 µM, respectively. The figures for the “Ratio CC50/IC50” value in series [3], in series [7] and in series [6] were 30.15, 11.9 and 7.87, respectively. This compound also returned a CC50 at 288 h in series [4] of 210 µM.

As to `C=CCc1ccc(Oc2cc(CC=C)ccc2O)cc1` [ISOMAGNOLOL], the IC50 was 12.9 µM in series [1], 8.83 µM in series [2] and 10.3 µM in series [5]. Besides, the “Ratio CC50/IC50” value in series [3] is given as 18.91; in series [7], 15.13; in series [6], 22.14. This compound also yielded a CC50 at 288 h in series [4] of 196 µM.

In the case of `C=CCc1ccc(Oc2ccc(/C=C/C=O)cc2)c(O)c1` [ISOSTREBLUSLIGNANALDEHYDE], the IC50 in series [1] turned out to be 61.2 µM; in series [2], 10.5 µM; in series [5], 12.2 µM. Also, the “Ratio CC50/IC50” value in series [3] was 16.46; in series [7] it was 3.27; in series [6], 19.11. For the same compound, it took 200 µM to reach half-maximal cytotoxicity in series [4] (CC50 at 288 h).

For the compound `C=CCc1ccc(O)c(-c2cc([C@@H](O)[C@@H](C)O)ccc2O)c1` [STREBLUSLIGNANOL], the 50% inhibitory concentration (IC50) is > 1000 µM in series [1], 147 µM in series [2] and > 1000 µM in series [5]. Further, half-maximal cytotoxicity in series [4] (CC50 at 288 h) was put at 200 µM. Also, in series [6], the “Ratio CC50/IC50” value turned out to be 1.36.

`COc1cc([C@H]2Oc3c(OC)cc(/C=C/C(=O)O)cc3[C@@H]2CO)ccc1O` [GLYCOSMISIC ACID]: the IC50 in series [1], in series [2] and in series [5] was > 1000 µM in each case. Also, the CC50 at 288 h in series [4] was 200 µM.

On to `COc1cc([C@H]2Oc3c(OC)cc(CCCO)cc3[C@@H]2CO)ccc1O` [DIHYDRODEHYDRODICONIFERY ALCOHOL], for which the IC50 in series [1], in series [2] and in series [5] was > 1000 µM throughout. This compound had a CC50 at 288 h in series [4] of 180 µM.

For the compound `Nc1ccn([C@@H]2CS[C@H](CO)O2)c(=O)n1` [LAMIVUDINE], the IC50 in series [1] was determined as 99.5 µM; in series [2], 176 µM; in series [5], 141 µM. For the same compound, the “Ratio CC50/IC50” value in series [3] was determined as 2.77; in series [7], 3.93; in series [6] it was 2.22. Moreover, it took 391 µM to reach half-maximal cytotoxicity in series [4] (CC50 at 288 h).

Consider `C=CCc1ccc(O)c(-c2cc([C@H]3O[C@H](c4ccc(O)c(-c5cc(CC=C)ccc5O)c4)[C@@H](C)O[C@@H]3C)ccc2O)c1` [STREBLUSLIGNANOL F], for which the IC50 amounted to 11.6 µM in series [1], 43.2 µM in series [2] and 56.9 µM in series [5]. Besides, the results for the “Ratio CC50/IC50” value in series [3], in series [7] and in series [6] were 2.41, 11.87 and 3.17, respectively. The CC50 at 288 h in series [4] stood at 137 µM.

As for `C=CCc1ccc(O[C@@H]2O[C@H](CO)[C@@H](O)[C@H](O)[C@H]2O)c(-c2cc(C[C@@H](O)CO)ccc2O)c1`, the IC50 in series [1], in series [2] and in series [5] was > 1000 µM throughout. In series [4], the CC50 at 288 h worked out at 190 µM.

Take `C=CCc1ccc(O)c(-c2cc(CC=C)ccc2O)c1` [MAGNOLOL]: the values for the IC50 in series [1], in series [2] and in series [5] were 8.67 µM, 3.76 µM and 2.03 µM, respectively. Besides, the “Ratio CC50/IC50” value turned out to be 31.37 in series [3], 7.34 in series [7] and 16.94 in series [6]. This compound also registered a CC50 at 288 h in series [4] of 63.7 µM.

Take `COc1cc([C@H]2c3cc(O)c(OC)cc3C[C@@H](CO)[C@@H]2CO)ccc1O` [ISOLARICIRESINOL]: the IC50 came to 12.7 µM in series [1], 14.7 µM in series [2] and 3.67 µM in series [5]. Moreover, the “Ratio CC50/IC50” value was 35.28 in series [3], 10.18 in series [7] and 8.82 in series [6]. The compound further registered a CC50 at 288 h in series [4] of 129 µM.

In the case of `C=CCc1ccc(O)c(-c2cc(C=O)ccc2O)c1` [MAGNALDEHYDE], the half-maximal inhibitory concentration (IC50) in series [1] was > 1000 µM; in series [2], 41.4 µM; in series [5], 109 µM. Besides, the “Ratio CC50/IC50” value in series [3] is reported as 1.84; in series [6] it was 4.83. In addition, the CC50 at 288 h in series [4] was 200 µM.

For `C=CCc1ccc(Oc2cc(CC=C)cc(O)c2O)cc1` [OBOVATOL], in series [4], the midpoint of cytotoxicity, the CC50 at 288 h, lay at 180 µM.
